Test results: PubChem BioAssay AID248 (DTP/NCI, 2004)
Where “and” joins values, the source holds several entries; their conditions need not be identical. Identical values can stand only once. Toxic doses and inconclusive results are not listed.

Test system: L1210 leukemia ip in BDF1 mice, survival T/C
Assay: NCI In Vivo Anticancer Drug Screen. Data for tumor model L1210 Leukemia (intraperitoneal) in B6D2F1 (BDF1) mice
Conditions: endpoint: mean survival time, higher = longer survival
Method in brief: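 Antitumor effect is assessed in tumor-bearing animals. Survival in the compound arm is compared with a vehicle-dosed control arm and expressed as their quotient.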

[1] = dose: 100.0 mg/kg/injection, schedule: Q01DX001 (ip), vehicle: saline
[2] = dose: 200.0 mg/kg/injection, schedule: Q01DX001 (ip), vehicle: saline
[3] = dose: 400.0 mg/kg/injection, schedule: Q01DX001 (ip), vehicle: saline
[4] = dose: 50.0 mg/kg/injection, schedule: Q04DX003 (ip), vehicle: saline
[5] = dose: 100.0 mg/kg/injection, schedule: Q04DX003 (ip), vehicle: saline with Tween-80
[6] = dose: 75.0 mg/kg/injection, schedule: Q01DX001 (ip), vehicle: carboxymethylcellulose (CMC)
[7] = dose: 150.0 mg/kg/injection, schedule: Q01DX001 (ip), vehicle: carboxymethylcellulose (CMC)
[8] = dose: 300.0 mg/kg/injection, schedule: Q01DX001 (ip), vehicle: carboxymethylcellulose (CMC)

SMILES: CCC1(Sc2ncnc3nc[nH]c23)C(=O)NC(=O)NC1=O
- T/C (dose: 6.25 mg/kg/injection, schedule: Q01DX015 (ip), vehicle: alkali diluted with saline): 124 % of control
- T/C (dose: 22.0 mg/kg/injection, schedule: Q01DX015 (ip), vehicle: saline): 154 % of control
- T/C (dose: 33.0 mg/kg/injection, schedule: Q01DX015 (ip), vehicle: saline): 157 % of control
- T/C (dose: 50.0 mg/kg/injection, schedule: Q01DX015 (ip), vehicle: saline): 164 % of control
- T/C (dose: 75.0 mg/kg/injection, schedule: Q01DX015 (ip), vehicle: saline): 183 % of control
- T/C (dose: 100.0 mg/kg/injection, schedule: Q01DX001 (ip), vehicle: alkali diluted with saline): 103 % of control
- T/C (dose: 200.0 mg/kg/injection, schedule: Q01DX001 (ip), vehicle: alkali diluted with saline): 106 % of control
- T/C (dose: 200.0 mg/kg/injection, schedule: Q01DX015 (ip), vehicle: alkali diluted with saline): 166 % of control
- T/C (dose: 400.0 mg/kg/injection, schedule: Q01DX001 (ip), vehicle: alkali diluted with saline): 114 % of control
- T/C (dose: 400.0 mg/kg/injection, schedule: Q01DX015 (ip), vehicle: alkali diluted with saline): 109 % of control

SMILES: CC([NH-])c1ccccc1.[Cl][Pt]([Cl])[Cl] (stereo unspecified)
- T/C (dose: 100.0 mg/kg/injection, schedule: Q01DX009 (ip), vehicle: saline): 97 % of control
- T/C (dose: 200.0 mg/kg/injection, schedule: Q01DX009 (ip), vehicle: saline): 92 % of control
- T/C (dose: 400.0 mg/kg/injection, schedule: Q01DX009 (ip), vehicle: saline): 87 % of control

SMILES: CCCCOP(=O)(N1CC1CC)N1CC1CC (stereo unspecified)
- T/C (dose: 6.25 mg/kg/injection, schedule: Q01DX009 (ip), vehicle: other): 99 % of control
- T/C (dose: 6.25 mg/kg/injection, schedule: Q04DX003 (ip), vehicle: other): 95 % of control
- T/C (dose: 12.5 mg/kg/injection, schedule: Q01DX009 (ip), vehicle: other): 95 % of control
- T/C (dose: 12.5 mg/kg/injection, schedule: Q04DX003 (ip), vehicle: other): 97 % of control
- T/C (dose: 25.0 mg/kg/injection, schedule: Q01DX009 (ip), vehicle: other): 92 % of control
- T/C (dose: 25.0 mg/kg/injection, schedule: Q04DX003 (ip), vehicle: other): 92 % of control
- T/C (dose: 50.0 mg/kg/injection, schedule: Q04DX003 (ip), vehicle: other): 94 % of control
- T/C (dose: 100.0 mg/kg/injection, schedule: Q04DX003 (ip), vehicle: other): 95 % of control

SMILES: O=C1C=CC(=O)C(SCCCSC2=CC(=O)C(SCCCSC3=CC(=O)C=CC3=O)=CC2=O)=C1
- T/C [1]: 92 % of control
- T/C [2]: 92 % of control
- T/C [3]: 101 % of control

SMILES: O=C(C[n+]1cccc(CO)c1)c1ccccc1
- T/C (dose: 12.5 mg/kg/injection, schedule: Q04DX003 (ip), vehicle: saline): 102 % of control
- T/C (dose: 25.0 mg/kg/injection, schedule: Q04DX003 (ip), vehicle: saline): 103 % of control
- T/C [4]: 100 % of control

SMILES: Cc1ccc(S(=O)(=O)N(CCCc2c(C)nc(N)[nH]c2=O)Cc2ccc(N)cc2)cc1
- T/C (dose: 100.0 mg/kg/injection, schedule: Q04DX002 (ip), vehicle: Klucel (hydroxypropylcellulose) (HPC)): 91 % of control
- T/C (dose: 200.0 mg/kg/injection, schedule: Q04DX002 (ip), vehicle: Klucel (hydroxypropylcellulose) (HPC)): 88 % of control
- T/C (dose: 400.0 mg/kg/injection, schedule: Q04DX002 (ip), vehicle: Klucel (hydroxypropylcellulose) (HPC)): 112 % of control

SMILES: CN(C)CCCNc1c2ccccc2nc2cccc([N+](=O)[O-])c12
- T/C (dose: 0.2 mg/kg/injection, schedule: Q04DX003 (ip), vehicle: saline): 100 % of control
- T/C (dose: 0.3 mg/kg/injection, schedule: Q04DX003 (ip), vehicle: saline): 94 % of control
- T/C (dose: 0.5 mg/kg/injection, schedule: Q04DX003 (ip), vehicle: saline): 108 % of control

SMILES: CC(=O)OCC1OC(SC2CCCCC2Br)C(OC(C)=O)C(OC(C)=O)C1OC(C)=O (stereo unspecified)
- T/C [1]: 101 % of control
- T/C [2]: 104 % of control
- T/C [3]: 106 % of control

SMILES: CCc1c(CO)cnc(C)c1OP(=O)(O)O
- T/C (dose: 100.0 mg/kg/injection, schedule: Q01DX001 (ip), vehicle: carboxymethylcellulose (CMC)): 100 % of control
- T/C (dose: 200.0 mg/kg/injection, schedule: Q01DX001 (ip), vehicle: carboxymethylcellulose (CMC)): 96 % of control
- T/C (dose: 400.0 mg/kg/injection, schedule: Q01DX001 (ip), vehicle: carboxymethylcellulose (CMC)): 102 % of control

SMILES: O=C(COc1ccccc1C(=O)O)NCc1ccc(Cl)cc1
- T/C (dose: 100.0 mg/kg/injection, schedule: Q04DX003 (ip), vehicle: gum acacia): 97 % of control
- T/C (dose: 200.0 mg/kg/injection, schedule: Q04DX003 (ip), vehicle: gum acacia): 95 % of control
- T/C (dose: 400.0 mg/kg/injection, schedule: Q04DX003 (ip), vehicle: gum acacia): 96 % of control

SMILES: CC(C)N(SSN(C(C)C)C(C)C)C(C)C
- T/C [5]: 95 % of control
- T/C (dose: 200.0 mg/kg/injection, schedule: Q04DX003 (ip), vehicle: saline with Tween-80): 100 % of control
- T/C (dose: 400.0 mg/kg/injection, schedule: Q04DX003 (ip), vehicle: saline with Tween-80): 89 % of control

SMILES: CCCCCCCCCCCCCCCCP(=O)(OCCOCCCCCC)OCCOCCCCCC
- T/C (dose: 12.5 mg/kg/injection, schedule: Q01DX009 (ip), vehicle: acetone): 93 % of control
- T/C (dose: 12.5 mg/kg/injection, schedule: Q04DX003 (ip), vehicle: acetone): 95 % of control
- T/C (dose: 25.0 mg/kg/injection, schedule: Q01DX009 (ip), vehicle: acetone): 100 % of control
- T/C (dose: 25.0 mg/kg/injection, schedule: Q04DX003 (ip), vehicle: acetone): 109 % of control
- T/C (dose: 50.0 mg/kg/injection, schedule: Q01DX009 (ip), vehicle: acetone): 93 % of control
- T/C (dose: 50.0 mg/kg/injection, schedule: Q04DX003 (ip), vehicle: acetone): 106 % of control

SMILES: NC(=O)CC[n+]1ccccc1
- T/C (dose: 12.5 mg/kg/injection, schedule: Q01DX009 (ip), vehicle: saline): 97 % of control
- T/C (dose: 25.0 mg/kg/injection, schedule: Q01DX009 (ip), vehicle: saline): 93 % of control
- T/C (dose: 50.0 mg/kg/injection, schedule: Q01DX009 (ip), vehicle: saline): 96 % of control
- T/C [4]: 105 % of control

SMILES: NCC(O)(c1ccccc1)c1ccccc1
- T/C (dose: 12.5 mg/kg/injection, schedule: Q01DX009 (ip), vehicle: Klucel (hydroxypropylcellulose) (HPC)): 101 % of control
- T/C (dose: 25.0 mg/kg/injection, schedule: Q01DX009 (ip), vehicle: Klucel (hydroxypropylcellulose) (HPC)): 95 % of control
- T/C (dose: 50.0 mg/kg/injection, schedule: Q01DX009 (ip), vehicle: Klucel (hydroxypropylcellulose) (HPC)): 89 % of control
- T/C (dose: 75.0 mg/kg/injection, schedule: Q01DX001 (ip), vehicle: other): 100 % of control

SMILES: Cc1ccc(Nc2cc(N)nc(N)n2)cc1
- T/C (dose: 25.0 mg/kg/injection, schedule: Q01DX Z (ip), vehicle: methylcellulose (MC)): 100 % of control

SMILES: CCCCNCCCC(C(=O)O)c1ccccc1 (stereo unspecified)
- T/C [6]: 100 % of control
- T/C [7]: 90 % of control
- T/C [8]: 90 % of control

SMILES: COc1ccc2nc(/N=C(/N)N=C(N)N)sc2c1
- T/C [6]: 100 % of control
- T/C [7]: 97 % of control
- T/C [8]: 103 % of control

SMILES: Nc1cc(Cl)c2cccnc2c1O
- T/C (dose: 50.0 mg/kg/injection, schedule: Q04DX003 (ip), vehicle: saline with Tween-80): 88 % of control
- T/C (dose: 75.0 mg/kg/injection, schedule: Q01DX001 (ip), vehicle: saline): 98 % of control
- T/C [5]: 100 % of control
- T/C (dose: 150.0 mg/kg/injection, schedule: Q01DX001 (ip), vehicle: saline): 96 % of control

SMILES: CCN(CC)CC(=O)N1Cc2ccccc2CCc2ccccc2C1
- T/C (dose: 100.0 mg/kg/injection, schedule: Q04DX003 (ip), vehicle: saline): 92 % of control

SMILES: COc1ccccc1/C=N\N/C(N)=N\N=C\c1ccccc1OC
- T/C (dose: 15.0 mg/kg/injection, schedule: Q01DX Z (ip), vehicle: carboxymethylcellulose (CMC)): 98 % of control
- T/C (dose: 30.0 mg/kg/injection, schedule: Q01DX Z (ip), vehicle: carboxymethylcellulose (CMC)): 103 % of control
- T/C (dose: 60.0 mg/kg/injection, schedule: Q01DX Z (ip), vehicle: carboxymethylcellulose (CMC)): 103 % of control and 117 % of control
- T/C (dose: 120.0 mg/kg/injection, schedule: Q01DX Z (ip), vehicle: carboxymethylcellulose (CMC)): 101 % of control and 117 % of control
- T/C (dose: 240.0 mg/kg/injection, schedule: Q01DX Z (ip), vehicle: carboxymethylcellulose (CMC)): 108 % of control
- T/C (dose: 240.0 mg/kg/injection, schedule: Q01DX Z (oral), vehicle: carboxymethylcellulose (CMC)): 97 % of control
- T/C (dose: 480.0 mg/kg/injection, schedule: Q01DX Z (ip), vehicle: carboxymethylcellulose (CMC)): 121 % of control
- T/C (dose: 480.0 mg/kg/injection, schedule: Q01DX Z (oral), vehicle: carboxymethylcellulose (CMC)): 105 % of control
- T/C (dose: 960.0 mg/kg/injection, schedule: Q01DX Z (oral), vehicle: carboxymethylcellulose (CMC)): 95 % of control
- T/C (dose: 1920.0 mg/kg/injection, schedule: Q01DX Z (oral), vehicle: carboxymethylcellulose (CMC)): 105 % of control
